In ChEMBL document CHEMBL3400099, “Novel thiazole-thiophene conjugates as adenosine receptor antagonists: synthesis, biological evaluation and docking studies” (Bioorg Med Chem Lett, 2015):

What was measured:
Adenosine receptor A1 = target: T1, Adenosine receptor A1 (Homo sapiens, UniProt P30542); assay: Displacement of [3H]CCPA from human adenosine A1 receptor expressed in CHO cells; format: cell-based
T1 sequence (P30542 whole entry): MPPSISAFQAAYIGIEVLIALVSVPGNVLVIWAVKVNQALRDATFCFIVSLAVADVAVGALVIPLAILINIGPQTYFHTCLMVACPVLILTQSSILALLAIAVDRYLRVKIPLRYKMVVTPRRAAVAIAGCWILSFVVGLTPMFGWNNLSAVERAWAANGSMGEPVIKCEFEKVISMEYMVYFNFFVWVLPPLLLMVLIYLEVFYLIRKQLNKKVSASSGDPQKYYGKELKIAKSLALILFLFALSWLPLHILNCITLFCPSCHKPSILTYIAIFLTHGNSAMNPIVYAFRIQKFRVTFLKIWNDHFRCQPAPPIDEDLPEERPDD

Adenosine receptor A3 = target: T2, Adenosine receptor A3 (Homo sapiens, UniProt P0DMS8); assay: Displacement of [3H]HEMADO from human adenosine A3 receptor expressed in CHO cells; format: cell-based
T2 sequence (P0DMS8 whole entry): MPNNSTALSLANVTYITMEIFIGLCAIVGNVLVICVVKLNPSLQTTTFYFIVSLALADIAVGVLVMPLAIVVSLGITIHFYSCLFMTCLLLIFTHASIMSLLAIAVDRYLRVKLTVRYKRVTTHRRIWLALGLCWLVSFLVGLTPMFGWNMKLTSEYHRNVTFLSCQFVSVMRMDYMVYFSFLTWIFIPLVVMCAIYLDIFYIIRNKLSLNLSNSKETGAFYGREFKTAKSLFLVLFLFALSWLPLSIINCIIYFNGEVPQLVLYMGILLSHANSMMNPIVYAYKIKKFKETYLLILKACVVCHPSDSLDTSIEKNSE

Adenosine receptor A2a = Adenosine receptor A2a (Homo sapiens, UniProt P29274); assay: Displacement of [3H]NECA from human adenosine A2A receptor expressed in CHO cells; format: cell-based
Chain of Adenosine receptor A2a (P29274 whole entry): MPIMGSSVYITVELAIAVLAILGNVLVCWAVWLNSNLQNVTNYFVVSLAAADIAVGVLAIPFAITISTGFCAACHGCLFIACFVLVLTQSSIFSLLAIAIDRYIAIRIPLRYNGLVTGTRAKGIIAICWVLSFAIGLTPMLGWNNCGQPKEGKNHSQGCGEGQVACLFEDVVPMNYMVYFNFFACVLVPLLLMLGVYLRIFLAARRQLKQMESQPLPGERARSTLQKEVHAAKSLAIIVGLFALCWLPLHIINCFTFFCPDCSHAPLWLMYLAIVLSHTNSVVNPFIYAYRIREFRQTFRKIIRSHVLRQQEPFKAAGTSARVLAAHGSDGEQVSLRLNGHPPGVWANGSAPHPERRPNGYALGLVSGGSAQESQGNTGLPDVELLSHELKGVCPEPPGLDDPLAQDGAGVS

[1] = target: Adenosine receptors; A1 & A3 (Homo sapiens) (UniProt P30542+P0DMS8); assay: Selectivity ratio of Ki for human adenosine A1 receptor to Ki for human adenosine A3 receptor
Homo sapiens = species on record: Homo sapiens; assay: Selectivity ratio of Ki for human adenosine A2A receptor to Ki for human adenosine A3 receptor

SMILES | Ki (Adenosine receptor A1) | Ki (Adenosine receptor A3) | Ki (Adenosine receptor A2a) | Selectivity ratio [1] | Selectivity ratio (Homo sapiens)
COc1ccc(Nc2nc(-c3ccc(C)cc3)c(C(=O)Nc3sc4c(c3C#N)CCCC4)s2)cc1 | > 30 µM | 9.56 µM | > 30 µM | > 3.1 | > 3.1
CCOC(=O)c1c(NC(=O)c2sc(Nc3ccc(C)cc3)nc2-c2ccc(C)cc2)sc2c1CCCC2 | > 30 µM | 2.16 µM | > 30 µM | > 14 | > 14
CCOC(=O)c1c(NC(=O)c2sc(NC(=O)OC)nc2N(C)C)sc2c1CCCC2 | > 100 µM | > 30 µM | > 100 µM | > 3.3 | > 3.3
Cc1ccc(Nc2nc(C)c(C(=O)Nc3sc4c(c3C#N)CCCC4)s2)cc1 | > 30 µM | 3.87 µM | 5.67 µM | > 7.8 | 1.5
CCOC(=O)c1c(NC(=O)c2sc(Nc3ccc(C)cc3)nc2C)sc(C(=O)OC)c1C | > 30 µM | > 30 µM | > 30 µM |  | 0.33
CN(C)c1nc(Nc2ccccc2)sc1C(=O)Nc1sc2c(c1C#N)CCCC2 | > 30 µM | 35.6 µM | > 30 µM | > 0.84 | > 0.84
Cc1ccc(Nc2nc(-c3ccc(C)cc3)c(C(=O)Nc3sc4c(c3C(N)=O)CCCC4)s2)cc1 | > 30 µM | 0.33 µM | > 10 µM | > 90 | > 30
CCOC(=O)c1c(NC(=O)c2sc(Nc3ccc(C)cc3)nc2C)sc2c1CCCC2 | > 30 µM | 8.22 µM | > 30 µM | > 3.7 | > 3.7
Cc1ccc(Nc2nc(N(C)C)c(C(=O)Nc3sc4c(c3C#N)CCCC4)s2)cc1 | > 100 µM | 34 µM | > 10 µM | > 2.9 | > 0.29

More lines, now with the values ahead:

Ki (Adenosine receptor A1) | Ki (Adenosine receptor A3) | Ki (Adenosine receptor A2a) | Selectivity ratio [1] | Selectivity ratio (Homo sapiens) | SMILES
14 µM | 2.73 µM | 9.66 µM | 5.1 | 3.5 | CCOC(=O)c1c(NC(=O)c2sc(Nc3ccc(OC)cc3)nc2N(C)C)sc(C(=O)OC)c1C
19 µM | 3.91 µM | 26.6 µM | 4.9 | 6.8 | CCOC(=O)c1c(NC(=O)c2sc(Nc3ccc(C)cc3)nc2N(C)C)sc(C(=O)OC)c1C
40.8 µM | 4.12 µM | 6.45 µM | 9.9 | 1.6 | CCOC(=O)c1c(NC(=O)c2sc(Nc3ccccc3)nc2N(C)C)sc2c1CCCC2
2.38 µM | 0.334 µM | 3.44 µM | 7.1 | 10 | Cc1ccc(-c2nc(Nc3ccccc3)sc2C(=O)Nc2sc3c(c2C(N)=O)CCCC3)cc1
> 10 µM | 0.52 µM | > 10 µM | > 19 | > 19 | CCOC(=O)c1c(NC(=O)c2sc(Nc3ccc(OC)cc3)nc2-c2ccc(C)cc2)sc2c1CCCC2
7.75 µM | 4.09 µM | 28.4 µM | 1.9 | 6.9 | CCOC(=O)c1c(NC(=O)c2sc(Nc3ccccc3)nc2-c2ccc(C)cc2)sc2c1CCCC2
> 10 µM | > 10 µM | > 10 µM |  |  | Cc1ccc(Nc2nc(-c3ccc(C)cc3)c(C(=O)Nc3sc4c(c3C#N)CCCC4)s2)cc1
23.5 µM | 4.71 µM | 18 µM | 5 | 3.8 | CCOC(=O)c1c(NC(=O)c2sc(Nc3ccc(C)cc3)nc2N(C)C)sc2c1CCCC2
32.4 µM | 7.13 µM | 22.3 µM | 4.5 | 3.1 | Cc1ccc(Nc2nc(N(C)C)c(C(=O)Nc3sc4c(c3C(N)=O)CCCC4)s2)cc1
